Measurements from paper PMC6056748, “Amsacrine Derivatives Selectively Inhibit Mycobacterial Topoisomerase I (TopA), Impair M. smegmatis Growth and Disturb Chromosome Replication” (Frontiers in Microbiology, 2018).
Where two headings read alike, the source gives them in different places.

Columns and labels:
MsTopA [1] = biological target: T1, MsTopA (Mycolicibacterium smegmatis, UniProt A0R5D9); assay: Topoisomerase I activity assay (relaxation of negatively supercoiled pUC19); type: biochemical, M. smegmatis; details: 60 nM MsTopA; for inhibition at 60 µM: 60 μM inhibitor; for MsTopA activity inhibition over concentration range: concentrations from 15 to 60 μM; for MsTopA inhibition in the screen of amsacrine derivatives (Table S2): 60 μM compound, data not shown
T1 sequence (A0R5D9 whole entry): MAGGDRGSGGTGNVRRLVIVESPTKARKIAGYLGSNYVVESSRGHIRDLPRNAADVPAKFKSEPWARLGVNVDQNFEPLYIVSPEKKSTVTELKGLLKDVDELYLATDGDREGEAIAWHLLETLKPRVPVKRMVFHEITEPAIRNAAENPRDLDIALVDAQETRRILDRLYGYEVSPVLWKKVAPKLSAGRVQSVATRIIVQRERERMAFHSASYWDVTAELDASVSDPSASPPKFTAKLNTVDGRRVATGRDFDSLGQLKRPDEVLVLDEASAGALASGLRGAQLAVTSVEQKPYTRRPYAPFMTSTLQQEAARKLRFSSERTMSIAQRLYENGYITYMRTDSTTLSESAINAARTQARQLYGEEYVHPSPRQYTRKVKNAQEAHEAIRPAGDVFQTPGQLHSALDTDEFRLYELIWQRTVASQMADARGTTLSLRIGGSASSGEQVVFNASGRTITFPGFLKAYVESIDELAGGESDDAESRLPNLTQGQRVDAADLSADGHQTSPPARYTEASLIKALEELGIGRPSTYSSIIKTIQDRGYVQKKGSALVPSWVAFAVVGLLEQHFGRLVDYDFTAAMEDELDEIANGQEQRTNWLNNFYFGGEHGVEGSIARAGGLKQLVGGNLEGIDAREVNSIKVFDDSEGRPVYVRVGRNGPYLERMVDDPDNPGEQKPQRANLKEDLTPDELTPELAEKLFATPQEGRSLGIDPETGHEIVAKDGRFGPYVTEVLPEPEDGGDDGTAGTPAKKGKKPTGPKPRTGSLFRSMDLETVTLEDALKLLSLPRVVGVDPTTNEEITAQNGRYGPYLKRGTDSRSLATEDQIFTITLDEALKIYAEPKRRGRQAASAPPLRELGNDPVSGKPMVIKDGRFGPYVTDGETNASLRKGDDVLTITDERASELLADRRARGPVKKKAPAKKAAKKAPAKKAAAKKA
Procedure: The amsacrine derivatives were stored at 4°C as 20 mM stock solutions in DMSO. Shortly before the activity assays, the inhibitors were diluted in DMSO to reach working concentration (0.15–0.6 mM). An 18 μl mixture containing 120 ng MsTopA, 25 mM NaH2PO4 at pH 8.0, 150 mM NaCl, 5% glycerol, 10 mM MgCl2 and a tested inhibitor in a final concentration of 15, 30, or 60 μM was incubated for 30 min on ice. To start the reaction, 2.0 μl (140 ng) of negatively supercoiled pUC19 plasmid were added to the mixture and incubated for 15 min at 37°C in the presence of 60 nM MsTopA. The reaction was stopped by adding 1.5 μl of 0.5 M EDTA. DNA was resolved in 0.8% agarose in TAE buffer at 140 V for 3 h at room temperature. Topoisomers distribution was visualized by ethidium bromide staining for 30 min at room temperature. Subsequently, the fluorescence signal of supercoiled plasmid and the relaxed topoisomers was calculated using ImageJ Fiji suite (http://fiji.sc/Fiji). To determine the efficiency of MsTopA inhibition, we calculated the fraction of total plasmid that remained supercoiled after the reaction.

MsTopA [2] = biological target: T1, MsTopA; assay: Surface plasmon resonance of MsTopA binding to immobilized DNA; set-up: species or system M. smegmatis; details: for MsTopA affinity for DNA (SPR): 15–90 μM compound, MsTopA 60 nM; for ICB, inhibitory concentration that completely blocks MsTopA binding: 241 bp DNA on chip, inhibitor preincubated with MsTopA
Procedure: Surface plasmon resonance (SPR)
SPR analyses were performed on a BIAcore T200. For the SPR analyses, the biotinylated fragment (241-bp long) was amplified using parA4200 and parS4440_rv_biot oligonucleotides from S. coelicolor chromosome. DNA immobilization on the surface of the sensor chip SA and protein binding analyses were performed according to the procedure described by Strzalka et al.[9]. Prior to binding to the DNA-coated chip, MsTopA (50 nM) in 25 mM NaH2PO4 pH 8.0, 150 mM NaCl and 5% glycerol (binding buffer) was incubated on ice for 40 minutes with amsacrine or its XC derivatives (in 15 - 90 µM concentrations or 1% DMSO for the control experiment). For each compound, the ICB value was estimated as the inhibitor concentration that completely abolished the binding of MsTopA to the DNA-coated chip.

M. smegmatis mc2155 = assay: Growth analysis (Bioscreen C, log-phase growth rate); type: cell-based; details: for inhibition at 30 µM: log-phase growth rate vs 1% DMSO; for IC50 lower than amsacrine: M. smegmatis growth
S. venezuelae = assay: as above; type: cell-based; details: for IC50: growth rate in log-phase, Figure 2B
E. coli = assay: as above; type: cell-based; details: Escherichia coli; for IC50: growth rate in log-phase, Figure 2B
[3] = tested on: M. smegmatis MSZ2 strain producing M. tuberculosis MtTopA; type: cell-based
[4] = tested on: M. smegmatis strain (JH01), DnaN-EGFP; assay: TLMM: number of DnaN-EGFP foci per cell
Procedure: For time-lapse microscopy, M. smegmatis strains were cultured to the log-phase of growth, then diluted with 7H9 medium supplemented with 10% OADC and 0.05% Tween-80 and loaded into the flow chamber of B04A plates with a CellASIC ONIX flow control system (Merck-Millipore). During the experiment, the cells were continuously supplied with fresh medium supplemented with the inhibitor (at 30–240 μM concentrations) or 1% DMSO in the control experiment. To visualize dead cells, after 15 h of inhibitor treatment cells were washed with propidium iodide at concentration 10 μg/ml for 1 h. The images were taken in 10 min intervals using a Delta Vision Elite Imager equipped with DV Elite CoolSnap HQ2 Camera and SoftWorx software and were subsequently analyzed using ImageJ Fiji suite (http://fiji.sc/Fiji) and R suite (http://www.R-project.org). The analysis of cell cycle and evaluation of particular phases of growth started from the moment of appearance of a single DnaN-EGFP foci (initiation of DNA replication).

[5] = tested on: M. smegmatis (JH01 strain); assay: Propidium iodide staining of dead cells (TLMM); details: 120 μM, after 15 hours of exposure
Procedure: For time-lapse microscopy, M. smegmatis strains were cultured to the log-phase of growth, then diluted with 7H9 medium supplemented with 10% OADC and 0.05% Tween-80 and loaded into the flow chamber of B04A plates with a CellASIC ONIX flow control system (Merck-Millipore). During the experiment, the cells were continuously supplied with fresh medium supplemented with the inhibitor (at 30–240 μM concentrations) or 1% DMSO in the control experiment. To visualize dead cells, after 15 h of inhibitor treatment cells were washed with propidium iodide at concentration 10 μg/ml for 1 h. The images were taken in 10 min intervals using a Delta Vision Elite Imager equipped with DV Elite CoolSnap HQ2 Camera and SoftWorx software and were subsequently analyzed using ImageJ Fiji suite (http://fiji.sc/Fiji) and R suite (http://www.R-project.org).
M. smegmatis (JH01 strain) growth in the presence of 120 µM amsacrine or 1% DMSO was
visualized using TLMM microscopy (the procedure descirbed in the materials and methods).
After 15 hours of exposure to antibiotic cells were washed with medium suplemented with 10
µg/ml propidium iodide for 1 hour to detect dead cells (red) in the population.

[6] = tested on: M. smegmatis strain (JH01), DnaN-EGFP; assay: TLMM: replisome lifetime and cell cycle phases; details: for Phase D+B / Phase C / Complete cell cycle: 120 µM, mean (SD), n = 50; for Phase D+B: 1% DMSO 33 (15); for Phase C: 1% DMSO 129 (15); for Complete cell cycle: 1% DMSO 162 (18); for Average lifetime of DnaN-EGFP complex (replisome lifetime): 120 μM, control 1% DMSO 130 min
MsTopA [7] = biological target: T1, MsTopA; assay: MsTopA inhibition in PI, NI and PN order-of-addition assays; type: biochemical, M. smegmatis; details: 60 μM inhibitor, 60 nM MsTopA
Procedure: In the inhibition assays used to test the effect of inhibitor binding to the enzyme, DNA or the enzyme-DNA complex (PI—protein-inhibitor binding, NI—nucleic acid-inhibitor binding, or PNI—protein-nucleic acid binding) the complete reaction mixtures (as above) without magnesium ions and one of the reaction components (substrate, enzyme or inhibitor in the PI, NI, and PNI assays, respectively) were preincubated for 30 min on ice. Subsequently, the reactions were started by adding magnesium chloride and the missing component: negatively supercoiled pUC19 plasmid, MsTopA protein or the particular inhibitors. The reactions were performed for 5 min at 37°C and stopped by adding 1.5 μl of 0.5 M EDTA. Topoisomers were resolved and analyzed according to the procedure described above.

[8] = Solubility under microfluidic conditions; type: physicochemical
[9] = Mycolicibacterium smegmatis, MC2155
[10] = Mycolicibacterium smegmatis, MC2155, M. smegmatis, Figure S4, read-out: IC50 (growth inhibition fitted to a sigmoidal model)
[11] = Mycolicibacterium smegmatis, MC2155, growth rate in log-phase, Figure 2B, read-out: IC50 M. smegmatis

| SMILES | inhibition at 60 µM (MsTopA [1]) | MsTopA activity inhibition over concentration range (MsTopA [1]) | MsTopA affinity for DNA (SPR) (MsTopA [2]) | ICB, inhibitory concentration that completely blocks MsTopA binding (MsTopA [2]) | inhibition at 30 µM (M. smegmatis mc2155; [9]) | IC50 (M. smegmatis mc2155; [10]) | IC50 (M. smegmatis mc2155; [11]) | IC50 (S. venezuelae; Streptomyces venezuelae) | IC50 (E. coli) | Difference in growth inhibition between wild-type M. smegmatis and MSZ2 strain producing MtTopA [3] | Percentage of cells with more than two DnaN-EGFP foci ([4]; 120 μM) | Percentage of cells with no DnaN-EGFP focus ([4]; 120 μM) | Phase D+B [6] | Phase C [6] | Average lifetime of DnaN-EGFP complex (replisome lifetime) [6] | MsTopA inhibition in the screen of amsacrine derivatives (Table S2) (MsTopA [1]) | Inhibitory effect when added to the preformed MsTopA-DNA complex (PN assay) (MsTopA [7]) | S. venezuelae growth inhibition (S. venezuelae; 60 μM) | IC50 lower than amsacrine (M. smegmatis mc2155) | also measured |
| --- | --- | --- | --- | --- | --- | --- | --- | --- | --- | --- | --- | --- | --- | --- | --- | --- | --- | --- | --- | --- |
| COc1cc(NS(C)(=O)=O)ccc1Nc1c2ccccc2nc2ccccc12 [Amsacrine, amsacrine] | 64% | strongly inhibit MsTopA activity at concentrations >30 μM | decrease in enzyme affinity for DNA | 90 µM | 20 to 30% | 40 µM | 41 µM | 47 µM | > 90 µM | did not observe any differences in growth inhibition | 27.6% | 26.1% | 40 (21) min | 154 (32) min | slightly increased | – | – | – | – | inhibition at 60 µM (M. smegmatis mc2155; Mycolicibacterium smegmatis, MC2155, 60 μM): ≤ 80%; inhibition at 60 µM (S. venezuelae; Streptomyces venezuelae, 60 μM): ≤ 80%; inhibition at 60 µM (E. coli; read-out: E. coli growth inhibition): 32%; Percentage of cells with more than two DnaN-EGFP foci ([4]; 240 μM): 6.2%; Percentage of cells with no DnaN-EGFP focus ([4]; 240 μM): 48%; Fraction of dead cells (propidium iodide) [5]: 12%; Complete cell cycle [6]: 194 (36) min; Complete cell cycle ([6]; listed as amsacrine): only slightly |
| COc1cc(NS(=O)(=O)c2ccccc2)ccc1Nc1c2ccccc2nc2ccccc12 [XC-1] | 73% | strongly inhibit MsTopA activity at concentrations >30 μM | decrease in enzyme affinity for DNA | 60 µM | 20 to 30% | 55.4 µM | 58 µM | > 90 µM | > 90 µM | did not observe any differences in growth inhibition | 13.4–19.1% | 13.8–18.3% | – | – | slightly increased | efficiently inhibited MsTopA activity | notably weaker | much lesser extent than amsacrine | – | – |
| COc1cc(NS(=O)(=O)c2ccc(Cl)cc2)ccc1Nc1c2ccccc2nc2ccccc12 [XC-2] | 63% | strongly inhibit MsTopA activity at concentrations >30 μM | decrease in enzyme affinity for DNA | 30 µM | 20 to 30% | 56 µM | – | 85 µM | > 90 µM | did not observe any differences in growth inhibition | 13.4–19.1% | 13.8–18.3% | – | – | slightly increased | efficiently inhibited MsTopA activity | notably weaker | much lesser extent than amsacrine | – | – |
| COc1cc(NS(=O)(=O)c2ccc([N+](=O)[O-])cc2)ccc1Nc1c2ccccc2nc2ccccc12 [XC-3] | 73% | strongly inhibit MsTopA activity at concentrations >30 μM | decrease in enzyme affinity for DNA | 15 µM | 55 to 60% | 26.8 µM | 26 µM | > 90 µM | 78 µM | did not observe any differences in growth inhibition | 13.4–19.1% | 13.8–18.3% | – | – | slightly increased | efficiently inhibited MsTopA activity | – | much lesser extent than amsacrine | 30–40% | Solubility under microfluidic conditions [8]: poor solubility |
| COc1cc(NS(=O)(=O)c2ccc(C)cc2)ccc1Nc1c2ccccc2nc2ccccc12 [XC-4] | 80% | strongly inhibit MsTopA activity at concentrations >30 μM | decrease in enzyme affinity for DNA | 15 µM | 55 to 60% | 27 µM | 28 µM | > 90 µM | 86 µM | did not observe any differences in growth inhibition | 4.6% | – | 70 (38) min | 240 (51) min | 220 min | efficiently inhibited MsTopA activity | – | much lesser extent than amsacrine | 30–40% | Percentage of cells with more than two DnaN-EGFP foci ([4]; 30 μM): 19.3%; DnaN-EGFP lifetime ([6]; 30 μM, compared with 120 μM XC-4): shortened the DnaN-EGFP lifetime |
| COc1cc([C@@H]2c3cc4c(cc3[C@@H](O[C@@H]3O[C@@H]5CO[C@@H](C)O[C@H]5[C@H](O)[C@H]3O)[C@H]3COC(=O)[C@H]23)OCO4)cc(OC)c1O [etoposide, reference compound] | – | – | – | – | – | – | – | – | – | – | – | – | – | – | – | – | – | – | – | MsTopA inhibition (MsTopA [1]; etoposide 0.1 - 2.0 mM): did not observe MsTopA inhibition |
